# Measured values as given in ChEMBL document CHEMBL1142081, “Evaluation of the in vivo activity of tribendimidine against Schistosoma mansoni, Fasciola hepatica, Clonorchis sinensis, and Opisthorchis viverrini” (2007).
# Activity calls are given as the source filed them. The rule behind the calls is not given here.
# Key:
# [1] = Reduction of worm burden in Clonorchis sinensis infected Wistar rat at 150 mg/kg, po relative to control; format: functional; design: scale not given: the % may be the effect or the level left
# [2] = Reduction of worm burden in Clonorchis sinensis infected Wistar rat at 75 mg/kg, po relative to control; format: functional; design: scale not given: the % may be the effect or the level left
# [3] = Reduction of worm burden in Opisthorchis viverrini infected Syrian Gold hamster at 400 mg/kg, po relative to control; format: functional; design: scale not given: the % may be the effect or the level left
# [4] = Reduction of worm burden in Opisthorchis viverrini infected Syrian Gold hamster at 200 mg/kg, po relative to control; format: functional; design: scale not given: the % may be the effect or the level left
# Fasciola hepatica [5] = assay: Reduction of worm burden in Fasciola hepatica infected Wistar rat at 800 mg/kg, po relative to control; format: functional; design: scale not given: the % may be the effect or the level left
# Fasciola hepatica [6] = assay: Effect on Fasciola hepatica infected Wistar rat assessed as infection cured rats at 800 mg/kg, po relative to control; format: functional, organism-based; design: dose 800 mg/kg
# Schistosoma mansoni [7] = assay: Reduction of total worm burden in Schistosoma mansoni Liberian infection NMRI mouse at 800 mg/kg, po relative to control; format: functional; design: scale not given: the % may be the effect or the level left
# Schistosoma mansoni [8] = assay: Reduction of female worm burden in Schistosoma mansoni Liberian infected NMRI mouse at 800 mg/kg, po relative to control; format: functional; design: scale not given: the % may be the effect or the level left
# Schistosoma mansoni [9] = assay: Effect on Schistosoma mansoni Liberian infected NMRI mouse assessed as infection cured mice at 400 mg/kg, po relative to control
compound,measurement,setting,value
C/C(=N/c1ccc(/N=C/c2ccc(/C=N/c3ccc(/N=C(/C)N(C)C)cc3)cc2)cc1)N(C)C [TRIBENDIMIDINE],Activity,[1],99.1%
same,Activity,[2],68.9%
same,Activity,[3],95.7%
same,Activity,[4],61.4%
same,Activity,Fasciola hepatica [5],0%
same,Activity,Fasciola hepatica [6],Active
same,Activity,Schistosoma mansoni [7],0%
same,Activity,Schistosoma mansoni [8],0%
same,Activity,Schistosoma mansoni [9],Active
